“Also recorded” adds a separate entry of the source.
Columns and labels:
[1] = tested on: cerebral artery NADPH-oxidase activity; experiment: NADPH-induced superoxide production by the rat basilar artery in vitro after subarachnoid haemorrhage, chronic in vivo treatment; parameters: species or system Sprague-Dawley rats; settings: FIG. 13
Description: Subarachnoid hemorrhage: On Day 0, rats are briefly anaesthetized (pentobarbital 50 mg/kg ip) and an osmotic minipump containing either saline or suramin is implanted subcutaneously. The dose rate of suramin is 300 mg/kg per 7 days. On Day 5, rats are again anaesthetized and 0.3 ml of blood is withdrawn from a femoral artery and injected into the cerebrospinal fluid around the ventral surface of the brain via the cisterna magna. In some control rats, saline is injected into the cerebrospinal fluid instead of arterial blood. The rat is allowed to recover for a further 2 days, and is then again anaesthetized on Day 7 for study.
On Day 0, rats were briefly anaesthetized and an osmotic minipump containing either saline or suramin was implanted subcutaneously. The dose rate of suramin was 30 or 300 mg/kg per 7 days. On Day 5, rats were again anaesthetized and 0.3 ml of blood was withdrawn from a femoral artery and injected into the cerebrospinal fluid around the ventral surface of the brain via the cisterna magna. In some rats, saline was injected into the cerebrospinal fluid instead of arterial blood. […]
The brain was removed and the basilar artery was isolated and then incubated with 5 micromolar lucigenin, 100 micromolar NADPH and 3 millimolar diethyldithiocarbamate. Superoxide production was measured using lucigenin-enhanced chemiluminescence.

[2] = target: T1, Nox4-containing NADPH-oxidase in mouse endothelium (Mus musculus, UniProt Q9JHI8); experiment: NADPH-driven NADPH-oxidase activity in mouse endothelium; type: cell-based; settings: suramin ≦100 μM
T1 construct: Nox4-containing NADPH-oxidase in mouse vascular smooth muscle cells (VSMC, a) and endothelium; endogenous in cells; host or cells: mouse endothelium (preparation not described)
T1 sequence (Q9JHI8 1-578): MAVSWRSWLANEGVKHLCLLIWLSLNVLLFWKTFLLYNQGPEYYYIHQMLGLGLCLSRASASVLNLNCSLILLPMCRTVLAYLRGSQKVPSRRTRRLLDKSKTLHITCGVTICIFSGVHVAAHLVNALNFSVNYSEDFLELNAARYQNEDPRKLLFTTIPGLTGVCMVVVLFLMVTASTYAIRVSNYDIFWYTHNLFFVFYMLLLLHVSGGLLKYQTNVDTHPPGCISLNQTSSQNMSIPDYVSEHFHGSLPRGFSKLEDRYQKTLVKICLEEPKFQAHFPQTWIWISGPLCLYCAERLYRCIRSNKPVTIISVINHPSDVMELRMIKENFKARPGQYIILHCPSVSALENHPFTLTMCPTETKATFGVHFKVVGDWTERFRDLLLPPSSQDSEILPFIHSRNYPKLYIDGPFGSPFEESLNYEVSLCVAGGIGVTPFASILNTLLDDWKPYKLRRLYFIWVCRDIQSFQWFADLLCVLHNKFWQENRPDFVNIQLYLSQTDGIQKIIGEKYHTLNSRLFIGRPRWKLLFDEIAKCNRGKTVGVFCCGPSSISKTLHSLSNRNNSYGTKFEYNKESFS
T1 sequence (Q61462 1-192 partner): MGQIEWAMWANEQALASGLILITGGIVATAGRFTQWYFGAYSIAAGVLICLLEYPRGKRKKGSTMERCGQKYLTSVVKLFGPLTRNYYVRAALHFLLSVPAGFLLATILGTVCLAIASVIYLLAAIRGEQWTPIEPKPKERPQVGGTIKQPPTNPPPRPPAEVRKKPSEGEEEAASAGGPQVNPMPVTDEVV

[3] = tested on: angiotensin II-induced hypertension; experiment: Angiotensin II-induced hypertension, arterial blood pressure; type: in vivo, rats
Description: Measurement of arterial blood pressure: Rats are briefly anaesthetized (ketamine 80 mg/kg ip plus xylazine 10 mg/kg ip) and a saline-filled cannula is inserted in a femoral artery. The cannula is connected to a pressure transducer and a chart recorder. When arterial pressure is observed to be stable (within 5 minutes) mean arterial pressure is calculated and recorded.
Angiotensin II-induced experimental hypertension: On Day 0, rats are briefly anaesthetized (ketamine 80 mg/kg ip plus xylazine 10 mg/kg ip) and an osmotic minipump containing either saline or suramin is implanted subcutaneously. The dose rate of suramin is 300 mg/kg per 14 days. On Day 7, rats are again anaesthetized and another minipump containing saline or angiotensin II is implanted subcutaneously. The dose rate of angiotensin II is 5 mg/kg per 7 days. On Day 14, each rat is again anaesthetized and a cannula was inserted into a femoral artery for measurement of blood pressure. Angiotensin II causes a large increase in mean arterial pressure (of approx. 60-80 mmHg) in control rats.
On Day 0, rats were briefly anaesthetized and an osmotic minipump containing either saline or suramin was implanted subcutaneously. The dose rate of suramin was 300 mg/kg per 14 days. On Day 7, rats were again anaesthetized and another minipump containing saline or angiotensin II was implanted subcutaneously. The dose rate of angiotensin II was 5 mg/kg per 7 days. On Day 14, each rat was again anaesthetized and a cannula was inserted into a femoral artery for measurement of blood pressure. Angiotensin II caused a large increase in blood pressure in rats pretreated with saline. In contrast, the increase in blood pressure by angiotensin II was prevented by approximately 60% in rats pretreated with suramin.

Cc1ccc(C(=O)Nc2ccc(S(=O)(=O)O)c3cc(S(=O)(=O)O)cc(S(=O)(=O)O)c23)cc1NC(=O)c1cccc(NC(=O)Nc2cccc(C(=O)Nc3cc(C(=O)Nc4ccc(S(=O)(=O)O)c5cc(S(=O)(=O)O)cc(S(=O)(=O)O)c45)ccc3C)c2)c1 [suramin] was tested, and the “NADPH (100 μM)-driven superoxide production by isolated basilar artery, control rats” value ([1]; suramin 30-300 mg/kg over 7 days, control rats without SAH) was “no effect”, the “NADPH-driven superoxide production by basilar artery 2 days after SAH” value ([1]; suramin 30 or 300 mg/kg per 7 days s.c. minipump, rats subjected to SAH) was “not different from levels measured in non-operated control rats; also recorded: prevents the increase” and the “inhibition of 100 μM NADPH-driven activity of Nox4-containing NADPH-oxidase in endothelium” value [2] was “fully inhibits”. The “mean arterial blood pressure of control rats” value ([3]; suramin 150 mg/kg s.c. per week for 2 weeks, no angiotensin II, ketamine-xylazine anaesthesia, FIG. 15) was “no effect”, the “prevention of the increase in blood pressure by angiotensin II” value ([3]; suramin 300 mg/kg per 14 days, angiotensin II 5 mg/kg per 7 days, Day 14) was “approximately 60%” and the “increase in arterial pressure during angiotensin II administration (in words)” value ([3]; suramin 1 week prior to and during 1 week of angiotensin II 5 mg/kg s.c., FIG. 15) was “smaller increase”.

— patent US20070037883A1, “Therapeutic compositions” (priority 2003, published 2007)
